Laboratory results reported in patent US20230114241A1, “METHODS OF TREATING EPILEPSY USING THE SAME” (Trevena, Inc., priority 2019, published 2023).

How the values were obtained:
hERG channel = hERG channel (Homo sapiens, UniProt Q12809); assay: cell-based
[1] = target: T1, human sphingosine-1-phosphate receptor 1 (S1P1) (Homo sapiens, UniProt P21453); assay: Inhibition of cAMP production (HTRF cAMP HiRange), S1P1 CHO-K1 cells; assay type: cell-based; conditions: for Emax: CHO-K1, efficacy normalized to maximum efficacy of fingolimod, read-out: hS1P1 CAMP SPAN; for EC50: read-out: hS1P1 CAMP pEC50 (converted)
How it was run: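 CHO-K1 cells co-expressing human S1P1 (C-terminal ProLink tag) and EA-β-arrestin2, plated overnight; after 30 min compound incubation at 37 °C, intracellular cAMP measured by HTRF TR-FRET following 1 h at room temperature. Values normalized to fingolimod.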
Target sequence in this assay (P21453 whole entry): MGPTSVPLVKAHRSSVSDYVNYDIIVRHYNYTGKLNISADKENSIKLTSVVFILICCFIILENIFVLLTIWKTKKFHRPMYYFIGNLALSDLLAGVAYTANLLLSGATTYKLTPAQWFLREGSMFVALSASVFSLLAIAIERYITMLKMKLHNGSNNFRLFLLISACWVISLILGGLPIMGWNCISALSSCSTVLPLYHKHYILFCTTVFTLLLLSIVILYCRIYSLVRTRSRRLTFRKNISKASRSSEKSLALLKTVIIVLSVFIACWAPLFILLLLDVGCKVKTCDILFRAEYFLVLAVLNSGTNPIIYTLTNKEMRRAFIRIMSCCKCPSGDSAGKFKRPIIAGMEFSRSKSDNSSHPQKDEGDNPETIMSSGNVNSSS

[2] = target: T1, human sphingosine-1-phosphate receptor 1 (S1P1); assay: β-Arrestin2 recruitment assay (PathHunter), S1P1 CHO-K1 cells; assay type: cell-based; conditions: for Emax: efficacy normalized to maximum efficacy of fingolimod, read-out: hS1P1 B-arrestin2 SPAN; for EC50: β-arrestin2 recruitment, read-out: hS1P1 B-arrestin2 pEC50 (converted)
How it was run: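 CHO-K1 cells co-expressing EA-β-arrestin2 and ProLink-tagged human S1P1 plated overnight, then stimulated 60 min at 37 °C. Enzyme-fragment complementation (β-galactosidase) detected after 1 h at room temperature by luminescence; values normalized to fingolimod.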
Target sequence in this assay (P21453 whole entry): as above
Target sequence in this assay (P32121 whole entry partner): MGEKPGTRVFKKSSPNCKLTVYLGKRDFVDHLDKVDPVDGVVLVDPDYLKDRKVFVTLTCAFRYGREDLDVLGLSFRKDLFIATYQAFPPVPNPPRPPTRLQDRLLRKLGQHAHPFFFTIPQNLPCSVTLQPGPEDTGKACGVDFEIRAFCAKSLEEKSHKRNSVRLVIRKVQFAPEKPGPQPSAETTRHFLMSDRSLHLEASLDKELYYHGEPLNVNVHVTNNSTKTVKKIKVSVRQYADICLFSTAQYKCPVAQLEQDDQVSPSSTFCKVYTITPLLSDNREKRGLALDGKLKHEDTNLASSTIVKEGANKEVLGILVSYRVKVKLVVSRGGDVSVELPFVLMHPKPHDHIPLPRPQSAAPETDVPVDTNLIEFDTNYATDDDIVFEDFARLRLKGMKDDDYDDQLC

[3] = target: human sphingosine-1-phosphate receptor 2 (S1P2) (Homo sapiens, UniProt O95136); assay: Selectivity: inositol monophosphate production (IP-one), S1P2 CHO-K1 cells; assay type: cell-based; conditions: for Emax: CHO-K1, efficacy normalized to maximal efficacy of CYM5520, read-out: hS1P2 IP-one SPAN; for EC50: inositol monophosphate accumulation, read-out: hS1P2 IP-one pEC50 (converted)
Description: (§1) Cell Culturing and Assay Plating Cell lines were cultured in AssayComplete™ Media 6 (DiscoverX Corporation, Cat #: 920018GF2) at 37° C. and 5% CO2 in a humidified CO2 and temperature-controlled incubator. To begin assay plating, cells were washed with Dulbecco's phosphate buffered saline (CellGro, Cat #: 21-031-CV) and lifted from the culturing flask by incubation (37° C., 5 min) with CellStripper (Cellgro, Cat #: 25-056-CI). […] Plated cells were incubated overnight at 37° C. and 5% CO2 in a humidified CO2 and temperature-controlled incubator. Detecting Inhibition of cAMP Production
S1P2 Agonist-promoted G-protein responses were determined by measuring changes in intracellular inositol monophosphate using the IP-one TB kit (CisBio, Cat #: 62IPAPEJ) based on time-resolved fluorescence resonance energy transfer (TR-FRET) technology. AssayComplete™ Cell Plating 2 Reagent was removed and replaced with 1× IP-one stimulation buffer (as per manufacturer's instructions) along with test or control compounds at the desired concentrations.
Following a 60-minute incubation at 37° C. and 5% CO2 in a humidified CO2 and temperature-controlled incubator, the components of the IP-one TB kit were added as per the manufacturer's instructions. After an hour incubation at room temperature, plates were analyzed by a BMG PheraStar microplate reader.
(§2) These values are normalized to fimgolimod, a known agonist of the sphingosine-1-phosphate 3 and 5 receptor or CYM5520, a known agonist of the sphingosine-1-phosphate 2 receptor. The tables also include potency values (pEC50) for modulating discrete receptor-mediated activities (inhibition of cAMP production or inositol monophosphate accumulation).

[4] = target: human sphingosine-1-phosphate receptor 3 (S1P3) (Homo sapiens, UniProt Q99500); assay: Selectivity: inhibition of cAMP production (HTRF), S1P3 CHO-K1 cells; assay type: cell-based; conditions: for Emax: CHO-K1, efficacy normalized to maximal efficacy of fimgolimod, read-out: hS1P3 cAMP SPAN; for EC50: inhibition of cAMP production, read-out: hS1P3 cAMP pEC50 (converted)
Description: as §1
(§3) S1P3 and S1P5 Agonist-promoted G-protein responses were determined by measuring changes in intracellular cAMP using the HTRF® cAMP HiRange kit (CisBio, Cat #: 62AM6PEJ) based on time-resolved fluorescence resonance energy transfer (TR-FRET) technology. […] Following a 30-minute room temperature incubation the components of the cAMP HiRange kit were added as per the manufacturer's instructions. After an hour incubation at room temperature, plates were analyzed by a BMG PheraStar microplate reader.
as §2

[5] = target: sphingosine-1-phosphate receptor 5 (S1P5) (Homo sapiens, UniProt Q9H228); assay: Selectivity: inhibition of cAMP production (HTRF), S1P5 CHO-K1 cells; assay type: cell-based; conditions: for Emax: CHO-K1, efficacy normalized to maximal efficacy of fimgolimod, read-out: hS1P5 cAMP SPAN; for EC50: inhibition of cAMP production, read-out: hS1P5 cAMP pEC50 (converted)
Description: as §1, §3, §2

[6] = system: peripheral blood lymphocytes; assay: Lymphopenia: peripheral blood lymphocyte counts, acute and chronic s.c. dosing; assay type: in vivo; conditions: c57bl/6 mice
Description: Compounds were tested for changes in peripheral blood lymphocytes in C57bl/6 mice. In acute studies, animals (n=5/group) were dosed subcutaneously with test compound at a dose of 3 mg/kg. Animals were sacrificed at specific time points and […] of whole blood was collected in EDTA (K2) Eppendorf tubes. Blood was stored on ice and shipped immediately overnight delivery to Charles River Laboratories for analysis. CRL ran samples through their WBC/differential panel on an Advia 120 instrument. We received peripheral lymphocyte counts (10^3 cells/μl) for each blood sample. Treatment group means were compared to a vehicle treatment group for statistical significance. In chronic studies, animals (n=6-8/group) were dosed subcutaneously for three to seven days with test compound at doses that were at least 5-fold higher than the efficacious dose in pharmacology/behavioral assays. On the last day, animals were sacrificed 45 minutes to 6 hrs after the final dose. Whole blood was collected and analyzed as described for acute studies. […]

[7] = system: Corneal Kindled Seizure Model; assay: Corneal Kindled Seizure Model (CKM), mouse; assay type: in vivo; set-up: key to Average Seizure Scores: seizure stage score; Stage 5 = rearing and falling, generalized clonic seizure
Description: Compounds are tested for efficacy in Corneal Kindled Seizure Model (CKM) Mouse. The pharmacological profile of the corneal kindled mouse is consistent with human partial epilepsy and effectively identifies the anticonvulsant potential of useful compounds for this condition, such as levetiracetam. Male C57BL/6 mice are kindled electrically with 3 sec stimulation, 3 mA, 60 Hz, and corneal electrodes to a criterion of 5 consecutive Stage 5 seizures (facial clonus and head nodding progressing to forelimb clonus, and finally rearing and falling accompanied by a generalized clonic seizure). After receiving twice daily corneal stimulations, mice typically reach the first Stage 5 seizure between approximately 10-14 days. […] Fully kindled mice are then stimulated every-other day until all other mice within the group reach the criterion of 5 consecutive Stage 5 seizures. Any mouse not achieving the fully kindled state is not included in any evaluation of investigational compounds. Testing of investigational compounds commences at least 5-7 days after the last stimulation. Mice are stimulated on the day prior to any drug evaluation to ensure that all mice to be used in the drug study will present with a Stage 5 seizure. […] After testing, the corneal kindled animals are returned to their home cage. Unlike the acute seizure tests conducted by the ETSP, each corneal kindled mouse is allowed at least 3-4 days between tests to “washout” any investigational compound after testing. Compound 469 was tested in the method described in Example 5. The data for Compound 469 is illustrated in Tables 1-4.

[8] = inhibition of cAMP production, potency
[9] = CHO-K1, β-arrestin2 recruitment
[10] = inhibition of cAMP production, S1P1
[11] = 3 mg/kg s.c., 0.5 hour, Experiment 1
[12] = 3 mg/kg s.c., 1 hour, Experiment 1
[13] = 5 mg/kg s.c., 0.5 hour, Experiment 1
[14] = 5 mg/kg s.c., 1 hour, Experiment 1

Chain of human sphingosine-1-phosphate receptor 3 (S1P3) (Q99500 whole entry): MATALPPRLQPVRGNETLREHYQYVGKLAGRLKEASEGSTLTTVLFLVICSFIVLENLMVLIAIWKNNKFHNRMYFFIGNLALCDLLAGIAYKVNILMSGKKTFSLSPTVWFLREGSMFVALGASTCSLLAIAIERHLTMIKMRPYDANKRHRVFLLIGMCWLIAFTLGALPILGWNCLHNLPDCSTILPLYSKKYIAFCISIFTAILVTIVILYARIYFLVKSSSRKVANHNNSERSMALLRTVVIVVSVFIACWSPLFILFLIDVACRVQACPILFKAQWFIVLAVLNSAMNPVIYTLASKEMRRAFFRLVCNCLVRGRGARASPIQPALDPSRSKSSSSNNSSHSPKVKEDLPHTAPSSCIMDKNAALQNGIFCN
Chain of hERG channel (Q12809 whole entry): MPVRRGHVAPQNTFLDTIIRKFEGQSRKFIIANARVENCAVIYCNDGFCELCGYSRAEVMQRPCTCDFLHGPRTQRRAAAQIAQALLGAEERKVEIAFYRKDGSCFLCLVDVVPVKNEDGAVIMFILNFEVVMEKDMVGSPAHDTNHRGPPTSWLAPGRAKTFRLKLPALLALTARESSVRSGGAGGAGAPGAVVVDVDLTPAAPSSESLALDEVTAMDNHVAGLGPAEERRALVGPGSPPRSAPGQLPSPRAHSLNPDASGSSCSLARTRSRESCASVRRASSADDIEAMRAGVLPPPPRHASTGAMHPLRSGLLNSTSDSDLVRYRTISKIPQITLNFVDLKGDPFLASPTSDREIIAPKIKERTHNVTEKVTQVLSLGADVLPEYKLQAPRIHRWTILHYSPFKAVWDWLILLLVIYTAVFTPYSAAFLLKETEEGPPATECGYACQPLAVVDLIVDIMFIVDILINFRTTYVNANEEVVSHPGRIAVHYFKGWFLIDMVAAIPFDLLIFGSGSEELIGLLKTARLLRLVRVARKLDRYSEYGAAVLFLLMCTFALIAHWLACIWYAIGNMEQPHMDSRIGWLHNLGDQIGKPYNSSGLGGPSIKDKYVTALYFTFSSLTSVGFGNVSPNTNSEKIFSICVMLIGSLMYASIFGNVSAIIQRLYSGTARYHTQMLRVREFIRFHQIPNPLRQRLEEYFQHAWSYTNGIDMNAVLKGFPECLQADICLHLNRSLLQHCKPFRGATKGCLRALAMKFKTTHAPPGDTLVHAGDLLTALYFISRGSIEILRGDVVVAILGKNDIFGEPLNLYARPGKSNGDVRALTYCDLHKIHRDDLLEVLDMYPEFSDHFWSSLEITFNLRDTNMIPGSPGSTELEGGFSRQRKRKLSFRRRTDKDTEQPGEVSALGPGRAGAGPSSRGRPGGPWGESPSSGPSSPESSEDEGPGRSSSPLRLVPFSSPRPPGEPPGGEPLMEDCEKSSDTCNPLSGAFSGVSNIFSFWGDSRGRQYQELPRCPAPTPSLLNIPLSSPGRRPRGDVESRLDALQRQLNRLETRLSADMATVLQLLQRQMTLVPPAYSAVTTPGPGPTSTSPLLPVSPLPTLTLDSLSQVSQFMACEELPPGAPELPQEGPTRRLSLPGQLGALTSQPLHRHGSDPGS
Chain of sphingosine-1-phosphate receptor 5 (S1P5) (Q9H228 whole entry): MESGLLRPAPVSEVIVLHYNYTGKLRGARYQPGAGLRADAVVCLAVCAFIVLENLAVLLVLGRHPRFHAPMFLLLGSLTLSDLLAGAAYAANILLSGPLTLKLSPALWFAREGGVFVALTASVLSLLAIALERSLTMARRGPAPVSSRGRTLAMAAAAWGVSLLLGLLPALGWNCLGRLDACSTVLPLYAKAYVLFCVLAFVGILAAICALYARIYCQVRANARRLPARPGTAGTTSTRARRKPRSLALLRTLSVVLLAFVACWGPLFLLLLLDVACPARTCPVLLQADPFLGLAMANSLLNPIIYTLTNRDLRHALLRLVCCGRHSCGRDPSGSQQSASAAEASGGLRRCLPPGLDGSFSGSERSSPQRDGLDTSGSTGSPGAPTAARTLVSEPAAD
Chain of human sphingosine-1-phosphate receptor 2 (S1P2) (O95136 whole entry): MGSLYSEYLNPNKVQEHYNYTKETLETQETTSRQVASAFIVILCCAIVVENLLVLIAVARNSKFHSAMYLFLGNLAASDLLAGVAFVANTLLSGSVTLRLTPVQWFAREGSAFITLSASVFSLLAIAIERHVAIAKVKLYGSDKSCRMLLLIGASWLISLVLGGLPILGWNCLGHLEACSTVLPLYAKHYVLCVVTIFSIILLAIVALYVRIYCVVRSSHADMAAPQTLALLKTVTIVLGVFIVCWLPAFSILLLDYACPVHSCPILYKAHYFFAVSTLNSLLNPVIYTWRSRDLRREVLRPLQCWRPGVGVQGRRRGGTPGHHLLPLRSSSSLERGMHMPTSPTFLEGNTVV

Q: How did the IC50 (hERG channel) turn out when `CC(C)Oc1ccc(-c2ncc(-c3ccnc(O)c3)cn2)cc1C#N` [Compound 744, 5-(5-(2-hydroxy-pyridin-4-yl)pyrimidin-2-yl)-2-isopropoxy-benzonitrile] was run?
A: > 10 µM

Q: `CC(C)Nc1ccc(-c2ncc(-c3ccnc(O)c3)cn2)cc1C#N` [Compound 743, 5-(5-(2-hydroxy-pyridin-4-yl)pyrimidin-2-yl)-2-(isopropyl-amino)benzonitrile] was tested. Which IC50 (hERG channel) did it give?
A: > 10 µM

Q: `Cc1ccccc1-c1nc(-c2ccc3c(c2)nnn3C(C)C)no1` [Compound 99, 3-(1-isopropyl-1H-benzo[d][1,2,3]triazol-5-yl)-5-(o-tolyl)-1,2,4-oxadiazole] was tested. Which Emax ([1]; inhibition of cAMP production) did it give?
A: > 75%

Q: What about the EC50 [1, 8] of the same molecule?
A: < 0.316 µM

Q: What about the Emax [2, 9] of the same molecule?
A: > 75%

Q: What about the EC50 ([2]; potency) of the same molecule?
A: < 10 µM

Q: What about the Emax [3] of the same molecule?
A: < 50%

Q: What about the EC50 [3] of the same molecule?
A: > 10 µM

Q: What about the Emax [4] of the same molecule?
A: < 50%

Q: And the EC50 [4]?
A: > 10 µM

Q: What about the Emax [5] of the same molecule?
A: > 50%

Q: What about the EC50 [5] of the same molecule?
A: > 10 µM

Q: What about the “Lymphopenia effect (peripheral blood lymphocytes)” value ([6]; 6 mg/kg sc, 7 days) of the same molecule?
A: no change: 6 mg/kg, 7 days

Q: What does the source list for `CC(C)n1nnc2cc(-c3nc(-c4cccc5c4OCO5)no3)ccc21` [Compound 32, 3-(benzo[d][1,3]dioxol-4-yl)-5-(1-isopropyl-1H-benzo[d][1,2,3]triazol-5-yl)-1,2,4-oxadiazole]?
A: Emax ([1]; inhibition of cAMP production): > 75%; EC50 [1, 8]: < 0.316 µM; Emax [2, 9]: < 75%; EC50 ([2]; potency): < 10 µM; Emax [3]: < 50%; EC50 [3]: > 10 µM; Emax [4]: < 50%; EC50 [4]: > 10 µM; Emax [5]: < 50%; EC50 [5]: > 10 µM; Lymphopenia effect (peripheral blood lymphocytes) ([6]; 6 mg/kg sc, 7 days): no change: 6 mg/kg, 7 days

Q: What does the source list for `COc1ccccc1-c1nc(-c2ccc3c(c2)nnn3C(C)C)no1` [Compound 287, 3-(1-isopropyl-1H-benzo[d][1,2,3]triazol-5-yl)-5-(2-methoxy-phenyl)-1,2,4-oxadiazole]?
A: Emax ([1]; inhibition of cAMP production): > 75%; EC50 [1, 8]: < 0.316 µM; Emax [2, 9]: > 75%; EC50 ([2]; potency): < 10 µM; Emax [3]: < 50%; EC50 [3]: > 10 µM; Emax [4]: < 50%; EC50 [4]: > 10 µM; Emax [5]: < 50%; EC50 [5]: > 10 µM; Lymphopenia effect (peripheral blood lymphocytes) ([6]; 6 mg/kg sc, 7 days): no change: 6 mg/kg, 7 days

Q: Which IC50 (hERG channel) does the source give for `CC(C)Oc1ccc(-c2ncc(-c3ccccn3)cn2)cc1C#N` [Compound 742, 2-isopropoxy-5-(5-(pyridin-2-yl)pyrimidin-2-yl)benzonitrile] here?
A: > 10 µM

Q: For `CC(C)Oc1ccc(-c2ncc(-c3cccnc3)cn2)cc1C#N` [Compound 738, 2-isopropoxy-5-(5-(pyridin-3-yl)pyrimidin-2-yl)benzonitrile], which IC50 (hERG channel) is on record?
A: > 10 µM

Q: Which Emax [1] does the source give for `N#Cc1cc(-c2nc(-c3ccc4c(c3)NC(=O)C4)no2)ccc1NCC1CC1` [Compound 497, 2-((cyclopropyl-methyl)amino)-5-(3-(2-oxoindolin-6-yl)-1,2,4-oxadiazol-5-yl)benzonitrile] here?
A: > 75%

Q: And the EC50 [1, 10]?
A: < 0.316 µM

Q: What about the Emax ([2]; CHO-K1) of the same molecule?
A: > 75%

Q: And the EC50 ([2]; S1P1)?
A: < 10 µM

Q: What about the IC50 (hERG channel) of the same molecule?
A: > 10 µM

Q: What does the source list for `N#Cc1cc(-c2nc(-c3ccc4oc(=O)[nH]c4c3)no2)ccc1NCC1CC1` [Compound 423, 2-((cyclopropyl-methyl)amino)-5-(3-(2-oxo-2,3-dihydrobenzo[d]oxazol-5-yl)-1,2,4-oxadiazol-5-yl)benzonitrile]?
A: Emax [1]: > 75%; EC50 [1, 10]: < 0.316 µM; Emax ([2]; CHO-K1): > 75%; EC50 ([2]; S1P1): < 10 µM; Emax [3]: < 50%; EC50 [3]: < 10 µM; Emax [4]: < 50%; EC50 [4]: < 10 µM; Lymphopenia effect (peripheral blood lymphocytes) ([6]; 6 mg/kg sc, 7 days): no change: 6 mg/kg, 7 days

Q: What does the source list for `CCC1(CC)CC(=O)c2cc(-c3nc(-c4cn[nH]c4)no3)ccc2O1` [Compound 469, 6-(3-(1H-pyrazol-4-yl)-1,2,4-oxadiazol-5-yl)-2,2-diethyl-chroman-4-one]?
A: EC50 [1, 10]: < 0.316 µM; Average Seizure Scores ([7]; 1 mg/kg, 2 hrs, Experiment 2): 3.25; N/F (number of animals protected / total number tested) ([7]; 1 mg/kg, 2 hrs, Experiment 2): 1/8; Average Seizure Scores ([7]; 2.5 mg/kg, 2 hrs, Experiment 2): 3.38; N/F (number of animals protected / total number tested) ([7]; 2.5 mg/kg, 2 hrs, Experiment 2): 2/8; Average Seizure Scores [7, 11]: 4.5; N/F (number of animals protected / total number tested) [7, 11]: 0/8; Average Seizure Scores [7, 12]: 3.38; N/F (number of animals protected / total number tested) [7, 12]: 1/8; Average Seizure Scores [7, 13]: 4; N/F (number of animals protected / total number tested) [7, 13]: 0/8; Average Seizure Scores [7, 14]: 3.38; N/F (number of animals protected / total number tested) [7, 14]: 1/8; Average Seizure Scores ([7]; 5 mg/kg, 2 hrs, Experiment 2): 2.5; N/F (number of animals protected / total number tested) ([7]; 5 mg/kg, 2 hrs, Experiment 2): 3/8; Average Seizure Scores ([7]; 10 mg/kg, 1 hour): 2.38; N/F (number of animals protected / total number tested) ([7]; 10 mg/kg, 1 hour): 2/8; Average Seizure Scores ([7]; 10 mg/kg, 2 hrs): 0.63; N/F (number of animals protected / total number tested) ([7]; 10 mg/kg, 2 hrs): 7/8; effect on seizures ([7]; Corneal Kindled Seizure Model, mouse): can reduce seizures; ED50 ([7]; Corneal Kindled Seizure Model, mouse, 2 hrs time point): 6.2 mg/kg; Lymphopenia effect (peripheral blood lymphocytes) ([6]; 3.7 mg/kg sc, 3 days): no change: 3.7 mg/kg, 3 days
